Measured values reported in patent US5179089A, “Isoquinoline compounds, compositions and use” (Chinoin Gyogyszer es Vegyeszeti Termekek Gyara Rt., priority 1990, dated 1993).
Read-outs that look alike come from different tables or passages of the source.

Columns and labels:
[1] = tested on: histamine-induced constriction of isolated tracheal smooth muscle of guinea pig; experiment: Inhibition of the histamine-induced constriction of isolated tracheal smooth muscle of guinea pig; details: Cavia porcellus, 0.25 h, isolated guinea pig trachea, read-out: Inhibition of the histamine-induced constriction of isolated tracheal smooth muscle of guinea pig pd'2 (converted)
Method: I Study on the Effects Against Spasmogenic Mediators [modified method of J. C. […] The investigation on isolated organs were carried out as follows. OHF Lt/R9 guinea pigs of both sexes weighing 300 to 400 g each were anaesthetized by pentobarbital. Their trachea was removed and sectioned in the opposite side to the site of smooth muscle in longitudinal direction. Subsequently, a strip-like preparation was obtained by […] cutting. […] A rest load of 0.5 g was used. Several washings were carried out during the incubation period of 30 minutes. The change in the tension of the tracheal smooth muscle was followed by using an isometric Grass FT-03 type tensiometer sensor device. A washing was made following the cumulative dose series of the given mediator (e.g. histamine). After reaching the base line, by 15 minutes after administration of the given concentration of the inhibitory (antiasthmatic) substance to be tested, the next cumulative dose series of the mediator was administered. In the case of an inhibitory action, the strength of effect, following the second dose series of the mediator, was […] in comparison to that of the first (control) series. For characterization of strength of the competitive antagonistic effect the pA2 value was determined according to the method of […] A pd'2 value was calculated [J. M. Van Rossum: Arch. Int.

LD50 on rat = details: in vivo, iv
[2] = tested on: active local anaphylactic reaction; experiment: Effect influencing the active local anaphylactic reaction on rat; type: in vivo, rat (female OFA); details: oral dose of 50 mg/kg, 30th minute after induction
Method: 1) The effect influencing the active local anaphylactic reaction was measured according to the method of M. Koltay [Arch. Allergy App. Immun. 71, 181 (1983)].
Female OFA rats weighing 160 to 180 g each were sensitized by bovine serum albumin (BSA) adsorbed to 50 μg of Al(OH)3 gel together with the simultaneous administration of Bordatella pertussis vaccine.
The anaphylactic reaction was elicited by injecting 100 μg of BSA into the right hind paw plant in the 14th day.
The measurements were carried out before and 30 minutes after eliciting the reaction. The animals were orally treated with the compound to be tested 1 hour before the injection of BSA. The results were expressed as percentage inhibition compared to the control group (average %±S.E.M.).

[3] = tested on: dextran-induced rat paw edema; experiment: Dextran-induced rat paw edema test; type: in vivo; details: 50 mg/kg (p.o.)
Method: 3) Dextran-induced rat paw edema test The method of S. Gourvaisier and R. Ducrot [Arch. Int. Pharmacodyn. Ther. 102, 33 (1955)] was employed. The method described for the carrageenin edema test was followed, except that the measurements were carried out 30, 60, 90, 120 and 180 minutes after induction of the inflammation.

[4] = tested on: carrageenin-induced rat paw edema; experiment: Carrageenin-induced rat paw edema test; type: in vivo, rat (female CFY); details: Rattus norvegicus, po, 50 mg/kg (p.o.), read-out: Percentage of the protective effect
Method: Proc. Soc. Exp. Med. 111, 544 (1962)]. Female CFY rats weighing 100 to 120 g each were used after starvation for 24 hours. The inflammation was induced by injecting 0.1 ml of 1% carrageenin solution into the right hind paw plant. The severity of inflammation was determined by using an Ugo-Basile type plethysmometer. The measurement was carried out before and 1.5, 3 and 4.5 hours after induction of the inflammation. The animals were orally treated with the substance to be tested 1 hour before administration of carrageenin. The effect was expressed as percentage inhibition related to the control group.

LD50 on mouse = details: in vivo

CCOc1cc2c(cc1OCC)C(=C(C#N)SCC(O)CN1CCOCC1)NCC2 (stereo not shown) [Example 18, 2-(6,7-diethoxy-1,2,3,4-tetrahydro-1-isoquinolinylidene)-2-[2-hydroxy-3-(4-morpholinyl)propyl]mercaptoacetonitrile]
IC50 [1]: 123 nM | LD50 (LD50 on rat; female rat): 133 mg/kg | LD50 (LD50 on rat; male rat): 91.4 mg/kg | Percentage of inhibition of the active local anaphylactic reaction [2]: -31% | Percentage of inhibition ([3]; 30 minutes): 29.8% | Percentage of inhibition ([3]; 60 minutes): 38.7% | Percentage of inhibition ([3]; 90 minutes): 30.4% | Percentage of inhibition ([3]; 120 minutes): 26.3% | Percentage of inhibition ([3]; 180 minutes): 28.4% | change in vivo at 50 mg/kg ([4]; 1.5 hours): -35.8% | change in vivo at 50 mg/kg ([4]; 3 hours): -29.3% | change in vivo at 50 mg/kg ([4]; 4.5 hours): -28.4% | LD50 (LD50 on mouse; iv, female mouse, read-out: LD50 i.v.): 150 mg/kg | LD50 (LD50 on mouse; iv, male mouse, read-out: LD50 i.v.): 166 mg/kg | LD50 (LD50 on mouse; po, female mouse, read-out: LD50 p.o.): 1030 mg/kg | LD50 (LD50 on mouse; po, male mouse, read-out: LD50 p.o.): 1200 mg/kg
